Test results from paper PMC10205660 (Chemistry (Weinheim an der Bergstrasse, Germany), 2023).

Tests used:
[1] = tested on: MCF7 (breast cancer); assay: Antiproliferative activity, MCF7; assay type: cell-based; conditions: read-out: IC50 values MCF7; MCF7
[2] = tested on: K562 (leukemia); assay: Antiproliferative activity, K562; assay type: cell-based; conditions: read-out: IC50 values K562; K562
[3] = tested on: A549 (lung cancer); assay: Antiproliferative activity, A549; assay type: cell-based; conditions: read-out: IC50 values A549; A549
[4] = tested on: HEK293; conditions: read-out: IC50 against normal cell line HEK293; cited from earlier work
[5] = tested on: MRC5; conditions: read-out: IC50 against normal cell line MRC5; cited from earlier work
[6] = tested on: Hsp90-dependent client proteins (pAkt, Cyclin D1, GLUT1), Hsp70, Hsp90 in MCF7 cells; conditions: MCF7, 48-hour incubation; cited from earlier work

`CCCC(O)C(C)C(=O)NC/C=C\CC(C)C(O)C(C)C1C/C=C\CC(C)C(O)Cc2cc(OC)cc(O)c2C(=O)O1` (stereo not drawn) [Compound 1, Cruentaren A, reference compound] gave an IC50 [1] of 4.67 nM, an IC50 [2] of 1.5 nM and an IC50 [3] of 0.75 nM. For the same molecule, the IC50 [4] was over 500 nM, the IC50 [5] was over 500 nM and the “degradation of Hsp90-dependent client proteins” value [6] was “induced the degradation”.
